Measured values published in US20210330611A1, “THERAPY FOR NEUROLOGICAL DISEASES/DISORDERS” (priority 2020, published 2021).
Read-outs that look alike come from different tables or passages of the source.

What was measured:
[1] = system: LPS-induced microglia activation; assay: Image-based assay of LPS-induced microglia activation (HTS and dose response); type: cell-based, rat; conditions: Rattus norvegicus, Microglia; for inhibition at 10 µM: read-out: LPS % inhibition
[2] = in vitro; conditions: rat
[3] = system: fibrin-induced microglia activation; assay: Image-based assay of fibrin-induced microglia activation (HTS and dose response); type: cell-based, rat; conditions: for IC50 / inhibition at 10 µM: Rattus norvegicus, Microglia; for inhibition at 10 µM: read-out: Fibrin % inhibition
[4] = in vitro; conditions: rat, Cell Toxicity IC50 (uM) [cFib assay]
[5] = system: primary rat microglia; conditions: rat
[6] = system: fibrin- and LPS-induced microglia activation; assay: cells; type: cell-based, rat; conditions: for inhibition at 10 µM: Rattus norvegicus; for Activity: Table 7, fib = fibrin, LPS, tox = toxicity
[7] = system: primary rat microglia; conditions: rat; remark: listed apart in the source
[8] = 48 h, Table 1, dose response 0.001-20 μM, triplicates, primary rat microglia, 48 h, read-out: LPS IC50
[9] = 48 h, primary microglia HTS, LPS stimulation, increased cell size (>800 μm^2) as marker of activation
[10] = LPS-induced microglia activation, dose response, read-out: LPS IC50 (uM) (Suppl. Table 7)
[11] = dose response, LPS-induced microglia activation, read-out: LPS IC50
[12] = 48 h, Table 1, dose response 0.001-20 μM, triplicates, primary rat microglia, 48 h, read-out: Fibrin IC50
[13] = dose response, fibrin-induced microglia activation, read-out: Fibrin IC50
[14] = fibrin-induced microglia activation, dose response, read-out: Fibrin IC50 (uM) (Suppl. Table 7)
[15] = primary microglia HTS, fibrin stimulation, increased cell size (>800 μm^2) as marker of activation
[16] = HTS of 1907 compounds, quadrant by fibrin and LPS inhibition
[17] = Microglia, HTS hit classification, read-out: Hit
[18] = quadrant by fibrin and LPS inhibition in HTS of 1907 compounds
[19] = Microglia, read-out: Cherry-picked Hit (Suppl. Table 7)
[20] = hit classification in microglia HTS, read-out: Cherry-picked Hit (Suppl. Table 7)
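For Fibrin % cell toxicity in this document: share of dead cells sized under 150 µm2 at 10 µM in fibrin-stimulated microglia HTS.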

Compound	IC50 [1, 8] [µM]	inhibition at 10 µM [1, 9] [%]	IC50 [1, 10] [µM]	IC50 ([1]; Table 7, read-out: LPS_IC50) [µM]	IC50 [1, 11] [µM]	IC50 [2] [µM]	IC50 [3, 12] [µM]	IC50 ([3]; Table 7, read-out: fib_IC50) [µM]	IC50 [3, 13] [µM]	IC50 [3, 14] [µM]	inhibition at 10 µM [3, 15] [%]	IC50 [4] [µM]	LPS % cell toxicity [5] [%]	Quadrant (FIG. 5b) [6, 16]	inhibition at 10 µM [6, 17] [%]	Quadrant (FIG. 5b) ([6]; Table 1, screen at 10 μM)	Quadrant (FIG. 5b) ([6]; Table 2, screen at 10 μM)	Activity [6]	Quadrant (FIG. 5b) [6, 18]	Fibrin % cell toxicity [7] [%]	further results
CC(=O)OCC(=O)[C@@]1(O)[C@H](OC(C)=O)C[C@H]2[C@@H]3CCC4=CC(=O)C=C[C@]4(C)[C@@]3(F)[C@@H](O)C[C@@]21C [Triamcinolone diacetate, reference compound]	0.8	100	0.8	0.002	0.8	> 20	0.04	0.002	0.04	0.04	110	> 20	5	Q2	> 50	Q2	Q2	fib/LPS	Q2	2	IC50 ([1]; Table 3, read-out: LPS IC50 (uM) (Suppl. Table 7)): 0.8 µM; Fibrin Selectivity [3]: 17; Fibrin Selectivity (LOG10) [3]: 1.23; IC50 ([3]; Table 3, read-out: Fibrin IC50 (uM) (Suppl. Table 7)): 0.04 µM; inhibition at 10 µM ([6]; Microglia, Table 3, read-out: Cherry-picked Hit (Suppl. Table 7)): > 50%; Quadrant (FIG. 5b) ([6]; Table 3, screen at 10 μM): Q2
Clc1ccc2c(c1)C(N1CCNCC1)=Nc1ccccc1O2 [Amoxapine, reference compound]						> 20						> 20	1							0	inhibition at 10 µM ([1]; 48 h): 43%; inhibition at 10 µM [3]: 58%; Quadrant (FIG. 5b) [6]: Q3; inhibition at 10 µM [6, 19]: > 50%; inhibition at 10 µM ([6]; Microglia, read-out: Hit): > 50%
COc1cc([C@@H]2c3cc4c(cc3[C@@H](O[C@@H]3O[C@@H]5CO[C@@H](c6cccs6)O[C@H]5[C@H](O)[C@H]3O)[C@H]3COC(=O)[C@H]23)OCO4)cc(OC)c1O [Teniposide, reference compound]	1	100	1	0.24	1	4	2	0.821	2	2	91		18	Q2	> 50	Q2	Q2	fib/LPS	Q2	2	IC50 ([4]; cFib assay): 20 µM; inhibition at 10 µM [6, 20]: > 50%
Clc1ccc(COC(Cn2ccnc2)c2ccc(Cl)cc2Cl)c(Cl)c1 (stereo not shown) [Miconazole nitrate, reference compound]						> 20						> 20	0							1	inhibition at 10 µM ([1]; 48 h): 23%; inhibition at 10 µM [3]: 53%; Quadrant (FIG. 5b) [6]: Q3; inhibition at 10 µM [6, 19]: > 50%; inhibition at 10 µM ([6]; Microglia, read-out: Hit): > 50%
C=C(CC)C(=O)c1ccc(OCC(=O)O)c(Cl)c1Cl [Ethacrynic acid, reference compound]	> 20	17	> 20		> 20	> 20	> 20		> 20	> 20	57		1	Q3	> 50	Q3			Q3	2	IC50 ([4]; cFib assay): > 20 µM; inhibition at 10 µM [6, 20]: > 50%
